According to patent publication US20240317744A1, “Bicyclic Ureas As Kinase Inhibitors” (Incyte Corporation, priority 2023, published 2024):

Legend:
[1] = molecular target: catalytic domain (JH1, amino acids 808-1132) of human JAK2 (Homo sapiens, UniProt O60674); experiment: JAK2 HTRF Enzyme Activity Assay; assay type: biochemical; settings: ATP 30 µM, 60 minutes at 25° C.; read-out: V617F ENZ 30 UM
[2] = molecular target: T1, catalytic domain (JH1, amino acids 826-1132) of human JAK2 (Homo sapiens, UniProt O60674); experiment: JAK2 LanthaScreen JH1 Binding Assay; settings: JAK2 JH1 1.5 nM, 50 nM tracer, 2 hours at 25° C.; read-out: JH1 BIND
T1 construct: catalytic domain (JH1, amino acids 826-1132) of human JAK2; FLAG (N); biotin (biotinylated); purchased Carna Biosciences 08-445-20N; host or cells: baculovirus expression system
Procedure, shortened: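 FLAG-tagged, biotinylated JAK2 JH1 (aa 826-1132, baculovirus-expressed; 1.5 nM) incubated 2 h at 25° C with compounds, 50 nM fluorescent tracer and 0.5 nM Streptavidin-Tb in Tris pH 7.5 buffer with MgCl2, Brij-35, BSA, EGTA, glycerol, DTT. Nonspecific binding defined with 2 mM ATP; TR-FRET IC50 from four-parameter fit.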

[3] = molecular target: T2, pseudo-kinase domain (JH2, amino-acids 536-812) of human V617F mutant JAK2 (Homo sapiens, UniProt O60674, F794H/V617F/W659A/W777A); experiment: JAK2 LanthaScreen JH2-V617F Binding Assay; settings: JAK2 JH2-V617F 0.26 nM, 50 nM tracer, 1 hour at 25° C.; read-out: JH2 BIND V617F
T2 construct: pseudo-kinase domain (JH2, amino-acids 536-812 with 3 surface mutations W659A, W777A, F794H); His (C); purchased BPS Bioscience 79498; host or cells: baculovirus expression system
Procedure, shortened: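 Competition of compounds with a fluorescent tracer (50 nM) for the biotinylated domain (0.26 nM), detected via streptavidin-Tb (0.25 nM) after 1 h at 25° C in pH 7.5 Tris buffer containing glycerol, BSA and Brij-35. ATP at 2 mM gave background. IC50 by four-parameter fit.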

[4] = molecular target: T3, pseudo-kinase domain (JH2, amino-acids 536-812) of human Wild Type JAK2 (Homo sapiens, UniProt O60674, F794H/W659A/W777A); experiment: JAK2 LanthaScreen JH2-WT Binding Assay; settings: JAK2 JH2-WT 0.145 nM, 50 nM tracer, 1 hour at 25° C.; read-out: JH2 BIND WT
T3 construct: pseudo-kinase domain (JH2, amino-acids 536-812 with 3 surface mutations W659A, W777A, F794H); His (C); purchased BPS Bioscience 79463; host or cells: baculovirus expression system
Procedure, shortened: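 IC50 values derive from four-parameter fits of LanthaScreen signal, measuring displacement of 50 nM fluorescent tracer from 0.145 nM biotinylated, baculovirus-expressed JH2 (536-812) detected by 0.25 nM streptavidin-Tb. Incubation lasts 1 hour at 25° C, pH 7.5.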

catalytic domain (JH1, amino acids 808-1132) of human JAK2, sequence (O60674 808-1132 limits assumed): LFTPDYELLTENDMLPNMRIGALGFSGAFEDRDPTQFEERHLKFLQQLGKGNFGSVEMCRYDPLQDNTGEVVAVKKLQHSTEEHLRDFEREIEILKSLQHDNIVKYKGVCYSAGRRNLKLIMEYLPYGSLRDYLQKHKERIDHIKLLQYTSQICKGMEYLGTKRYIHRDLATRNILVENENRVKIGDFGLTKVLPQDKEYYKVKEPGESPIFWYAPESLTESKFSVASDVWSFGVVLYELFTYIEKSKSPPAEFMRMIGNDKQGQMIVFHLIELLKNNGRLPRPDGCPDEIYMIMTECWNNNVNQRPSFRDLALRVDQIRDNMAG
T3 sequence (O60674 536-812 W659A/W777A/F794H): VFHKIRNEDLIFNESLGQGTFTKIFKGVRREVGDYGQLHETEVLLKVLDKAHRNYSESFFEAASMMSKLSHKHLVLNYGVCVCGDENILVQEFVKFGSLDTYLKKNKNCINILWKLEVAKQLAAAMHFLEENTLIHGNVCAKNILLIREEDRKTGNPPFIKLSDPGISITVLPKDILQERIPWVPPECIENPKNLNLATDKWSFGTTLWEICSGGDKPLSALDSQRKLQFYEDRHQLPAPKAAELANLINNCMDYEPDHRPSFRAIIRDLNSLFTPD
T2 sequence (O60674 536-812 V617F/W659A/W777A/F794H): as the sequence (O60674 536-812 W659A/W777A/F794H) above, with V82F counted along it
T1 sequence (O60674 826-1132): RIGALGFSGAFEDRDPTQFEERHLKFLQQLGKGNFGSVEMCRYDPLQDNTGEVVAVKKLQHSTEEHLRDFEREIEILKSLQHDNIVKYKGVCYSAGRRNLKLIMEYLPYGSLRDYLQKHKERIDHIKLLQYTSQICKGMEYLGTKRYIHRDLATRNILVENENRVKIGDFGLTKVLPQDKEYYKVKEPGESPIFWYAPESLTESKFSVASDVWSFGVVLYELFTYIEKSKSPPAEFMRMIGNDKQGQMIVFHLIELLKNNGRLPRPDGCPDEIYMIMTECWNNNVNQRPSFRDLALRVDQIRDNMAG

Compound	IC50 [1]	IC50 [2]	IC50 [3]	IC50 [4]
[2H]C([2H])([2H])n1c(=O)n([C@@H]2CC[C@@H](NC(=O)OC)C2)c2cc(Nc3cc(C(=O)N4CCOCC4)cc(-c4ccc(C(F)F)s4)n3)ncc21 [Example 104, Methyl ((1R,3R)-3-(6-((6-(5-(difluoromethyl)thiophen-2-yl)-4-(morpholine-4-carbonyl)pyridin-2-yl)amino)-3-(methyl-d3)-2-oxo-2,3-dihydro-1H-imidazo[4,5-c]pyridin-1-yl)cyclopentyl)carbamate]	500 to 1000 nM	> 1000 nM	≤ 10 nM	≤ 10 nM
[2H]C([2H])([2H])n1c(=O)n([C@@H]2CC[C@@H](NC(=O)OC)C2)c2cc(Nc3cc(C4CCN(C(C)=O)CC4)cc(-c4ncc(C(F)(F)F)s4)n3)ncc21 [Example 105, Methyl ((1R,3R)-3-(6-((4-(1-acetylpiperidin-4-yl)-6-(5-(trifluoromethyl)thiazol-2-yl)pyridin-2-yl)amino)-3-(methyl-d3)-2-oxo-2,3-dihydro-1H-imidazo[4,5-c]pyridin-1-yl)cyclopentyl)carbamate]	> 1000 nM	> 1000 nM	≤ 10 nM	≤ 10 nM
[2H]C([2H])([2H])n1c(=O)n([C@H]2C[C@H](C(C)(C)O)C2)c2cc(Nc3cc(-c4cnccc4C(F)(F)F)c4nc(C)c(-c5cnn(C(F)F)c5)n4n3)ncc21 [Example 106, 6-((3-(1-(Difluoromethyl)-1H-pyrazol-4-yl)-2-methyl-8-(4-(trifluoromethyl)pyridin-3-yl)imidazo[1,2-b]pyridazin-6-yl)amino)-1-((1r,3r)-3-(2-hydroxypropan-2-yl)cyclobutyl)-3-(methyl-d3)-1,3-dihydro-2H-imidazo[4,5-c]pyridin-2-one]	> 1000 nM	> 1000 nM	≤ 10 nM	≤ 10 nM
[2H]C([2H])([2H])n1c(=O)n([C@@H]2CC[C@@H](NC(=O)OC)C2)c2cc(Nc3cc(-c4cnn(C)c4)cc(-c4ncc(C(C)(C)O)s4)n3)ncc21 [Example 107, Methyl ((1R,3R)-3-(6-((6-(5-(2-hydroxypropan-2-yl)thiazol-2-yl)-4-(1-methyl-1H-pyrazol-4-yl)pyridin-2-yl)amino)-3-(methyl-d3)-2-oxo-2,3-dihydro-1H-imidazo[4,5-c]pyridin-1-yl)cyclopentyl)carbamate]	> 1000 nM	> 1000 nM	≤ 10 nM	≤ 10 nM
[2H]C([2H])([2H])n1c(=O)n([C@@H]2CC[C@@H](NC(=O)OC)C2)c2cc(Nc3cccc(-n4cc(C(F)(F)F)cn4)n3)ncc21 [Example 108, Methyl ((1R,3R)-3-(3-(methyl-d3)-2-oxo-6-((6-(4-(trifluoromethyl)-1H-pyrazol-1-yl)pyridin-2-yl)amino)-2,3-dihydro-1H-imidazo[4,5-c]pyridin-1-yl)cyclopentyl)carbamate]	> 1000 nM	> 1000 nM	≤ 10 nM	≤ 10 nM
[2H]C([2H])([2H])n1c(=O)n([C@@H]2CC[C@@H](NC(=O)OC)C2)c2cc(Nc3ccc4c(n3)n(-c3cnn(C(F)F)c3)c(=O)n4CC3(C#N)CC3)ncc21 [Example 114, Methyl ((1R,3R)-3-(6-((1-((1-cyanocyclopropyl)methyl)-3-(1-(difluoromethyl)-1H-pyrazol-4-yl)-2-oxo-2,3-dihydro-1H-imidazo[4,5-b]pyridin-5-yl)amino)-3-(methyl-d3)-2-oxo-2,3-dihydro-1H-imidazo[4,5-c]pyridin-1-yl)cyclopentyl)carbamate]	> 1000 nM	> 1000 nM	≤ 10 nM	≤ 10 nM
[2H]C([2H])([2H])n1c(=O)n([C@@H]2CC[C@@H](NC(=O)OC)C2)c2cc(Nc3cc(C(C)(C)O)c4nc(C)n(-c5cnn(C(F)F)c5)c4n3)ncc21 [Example 115, Methyl ((1R,3R)-3-(6-((3-(1-(difluoromethyl)-1H-pyrazol-4-yl)-7-(2-hydroxypropan-2-yl)-2-methyl-3H-imidazo[4,5-b]pyridin-5-yl)amino)-3-(methyl-d3)-2-oxo-2,3-dihydro-1H-imidazo[4,5-c]pyridin-1-yl)cyclopentyl)carbamate]	> 1000 nM	> 1000 nM	≤ 10 nM	≤ 10 nM
[2H]C([2H])([2H])n1c(=O)n([C@@H]2CC[C@@](C)(NC(=O)C3CC3)C2)c2cc(Nc3cc(C(=O)N4CCOCC4)c4cccc(C(F)(F)F)c4n3)ncc21 [Example 116, N-((1R,3R)-1-methyl-3-(3-(methyl-d3)-6-((4-(morpholine-4-carbonyl)-8-(trifluoromethyl)quinolin-2-yl)amino)-2-oxo-2,3-dihydro-1H-imidazo[4,5-c]pyridin-1-yl)cyclopentyl)cyclopropanecarboxamide]	100 to 500 nM	100 to 500 nM	≤ 10 nM	≤ 10 nM
[2H]C([2H])([2H])n1c(=O)n([C@@H]2CC[C@](C)(NC(=O)C3CC3)C2)c2cc(Nc3cc(CO)c4nn(C)c(-c5cnn(C(F)(F)F)c5)c4n3)ncc21 [Example 117, N-((1S,3R)-3-(6-((7-(hydroxymethyl)-2-methyl-3-(1-(trifluoromethyl)-1H-pyrazol-4-yl)-2H-pyrazolo[4,3-b]pyridin-5-yl)amino)-3-(methyl-d3)-2-oxo-2,3-dihydro-1H-imidazo[4,5-c]pyridin-1-yl)-1-methylcyclopentyl)cyclopropanecarboxamide]	> 1000 nM	> 1000 nM	≤ 10 nM	≤ 10 nM
[2H]C([2H])([2H])n1c(=O)n([C@@H]2CC[C@@H](NC(=O)OC)C2)c2cc(Nc3ccc4c(n3)c(-c3cnn(C(F)(F)F)c3)nn4CC(C)(C)O)ncc21 [Example 118, Methyl ((1R,3R)-3-(6-((1-(2-hydroxy-2-methylpropyl)-3-(1-(trifluoromethyl)-1H-pyrazol-4-yl)-1H-pyrazolo[4,3-b]pyridin-5-yl)amino)-3-(methyl-d3)-2-oxo-2,3-dihydro-1H-imidazo[4,5-c]pyridin-1-yl)cyclopentyl)carbamate]	> 1000 nM	> 1000 nM	≤ 10 nM	≤ 10 nM
[2H]C([2H])([2H])n1c(=O)n([C@@H]2CC[C@](C)(NC(=O)C3CC3)C2)c2cc(Nc3ccc4c(n3)c(-c3cnn(C(F)(F)F)c3)nn4CC(C)(C)O)ncc21 [Example 119, N-((1S,3R)-3-(6-((1-(2-Hydroxy-2-methylpropyl)-3-(1-(trifluoromethyl)-1H-pyrazol-4-yl)-1H-pyrazolo[4,3-b]pyridin-5-yl)amino)-3-(methyl-d3)-2-oxo-2,3-dihydro-1H-imidazo[4,5-c]pyridin-1-yl)-1-methylcyclopentyl)cyclopropanecarboxamide]	> 1000 nM	> 1000 nM	≤ 10 nM	≤ 10 nM
[2H]C([2H])([2H])n1c(=O)n([C@H]2CC[C@@](C)(NC(=O)C3CC3)CC2)c2cc(Nc3ccc4c(n3)c(-c3cnn(C(F)(F)F)c3)nn4CC(C)(C)O)ncc21 [Example 120, N-((1s,4s)-4-(6-((1-(2-Hydroxy-2-methylpropyl)-3-(1-(trifluoromethyl)-1H-pyrazol-4-yl)-1H-pyrazolo[4,3-b]pyridin-5-yl)amino)-3-(methyl-d3)-2-oxo-2,3-dihydro-1H-imidazo[4,5-c]pyridin-1-yl)-1-methylcyclohexyl)cyclopropanecarboxamide]	> 1000 nM	> 1000 nM	≤ 10 nM	≤ 10 nM
[2H]C([2H])([2H])n1c(=O)n([C@@H]2CC[C@@H](NC(=O)OC)C2)c2cc(Nc3cc(C(=O)N4CCOCC4)c4cc(C)cc(C(F)(F)F)c4n3)ncc21 [Example 135, Methyl ((1R,3R)-3-(3-(methyl-d3)-6-((6-methyl-4-(morpholine-4-carbonyl)-8-(trifluoromethyl)quinolin-2-yl)amino)-2-oxo-2,3-dihydro-1H-imidazo[4,5-c]pyridin-1-yl)cyclopentyl)carbamate]	500 to 1000 nM	> 1000 nM	≤ 10 nM	≤ 10 nM
